This note sets out measurements from patent US9983218B2, “Indole and indoline derivatives and methods of use thereof” (AbbVie Inc., priority 2008, dated 2018).

The test concerns SK-N-SH human neuroblastoma cells. Kind of test: Serum deprivation/JC-1 mitochondrial membrane potential (MMP) assay. Type of test: cell-based. As to conditions: Homo sapiens; for Emax: SK-N-SH, percent maximal intensity in JC-1 ratio normalized to 10 μM dimebolin, read-out: JC-1 max %; for EC50: SK-N-SH cells, serum deprivation ~18 hours, JC-1 ratio normalized to peak value for 10 μM dimebolin, single curve fit to mean data of n=2-3, read-out: EC50. Here is the method: SK-N-SH human neuroblastoma cells obtained from American Type Culture Collection (Rockville, Md.) were maintained in the log phase of growth in Minimal Essential Media (MEM), 10% heat inactivated fetal calf serum and 100 units/mL antibiotic-antimycotic (AA). Cells were cultured and maintained in a humidified incubator at 37° C. under 5% CO2 and 95% air. Cells were trypsinized (0.25%) and subcultured every 3 days and used from 15-18 passages. All cell culture supplies were obtained from Invitrogen (Carlsbad, Calif.).
SK-N-SH cells were plated 2-3 days in advance at a concentration of 50,000 cells/well onto collagen coated black-walled 96 well plates (Becton-Dickinson, Bedford, Mass.) in a total volume of 200 μL. On day of experimental treatment, the media containing serum was aspirated from each well and rinsed once with MEM/1% AA without serum. The cells then were incubated overnight in 100 μL of MEM/1% AA (no serum) with and without dimebolin or novel chemical entities overnight for ˜18 hours. The following day, JC-1 dye (5,5′,6,6′-tetrachloro-1,1′,3,3′-tetraethylbenzimidazolcarbocyanide) was diluted 1:10 into MEM media according to the JC-1 Mitochondrial Membrane Potential Assay Kit: (Cayman Chemical Company, Ann Arbor, Mich.) and then 10 μL of the JC-1 dye solution was added to each well. The plates were centrifuged for 5 minutes at 400×g at room temperature followed by 35 minute incubation at 37° C. The plates were washed twice with 200[…] μL of provided Assay Buffer followed an addition of 100 μL of Assay Buffer to each well. The plates were read with an excitation and emission of 560 nm and 595 nM for red fluorescence and with an excitation and emission of 485 nm and 535 nM for green fluorescence to determine the final JC-1 value taking the red to green fluorescence ratio. This assay is based on change in mitochondrial membrane potential (MMP) using this lipophilic cationic dye, JC-1, by monitoring the changes in the ratio of red to green fluorescence as the MMP depolarizes. This change in MMP reflects the health of the cell with healthy, viable cells have a high JC-1 ratio and high MMP whereas apoptotic, unhealthy cells have a low JC-1 ratio or low MMP.
For the ability of compounds to reverse the stress due to serum deprivation and increase the JC-1 ratio, the percent maximal intensity in JC-1 ratio was normalized to that induced by the peak value for 10 μM dimebolin and plotted against the compound concentration to calculate EC50 values and to control for plate-to-plate variability. Concentration-response data were analyzed using GraphPad Prism (San Diego, Calif.); the EC50 values were derived from a single curve fit to the mean data of n=2-3, in duplicates.
All compounds were dissolved in dimethyl sulfoxide at 10 mM stock solutions and tested at a concentration that the dimethyl sulfoxide levels never exceeded 1%.

Each structure is given as a SMILES string.

By EC50 is commonly meant the concentration at which the effect is half-maximal. On to `Cc1ncc(-n2c3c(c4cc(F)ccc42)CN2CCC3CC2)cn1` [Example 263, 9-fluoro-6-(2-methylpyrimidin-5-yl)-3,4,5,6-tetrahydro-1H-2,5-ethanoazepino[4,3-b]indole], for which the Emax was 108% and the concentration for a half-maximal effect (EC50) amounted to 11 µM.
The like results for `CN1C2CCC1c1c(n(CCc3ccc(Cl)cc3)c3ccc(C(F)(F)F)cc13)C2` (stereo not drawn) [Example 98, 5-[2-(4-chlorophenyl)ethyl]-11-methyl-2-(trifluoromethyl)-5,6,7,8,9,10-hexahydro-7,10-epiminocyclohepta[b]indole] were, in that order, 176% and 7.26 µM.
For `c1cnc2cc(-n3c4c(c5ccccc53)CN3CCC4CC3)ccc2c1` [Example 234, 6-quinolin-7-yl-3,4,5,6-tetrahydro-1H-2,5-ethanoazepino[4,3-b]indole], the Emax amounted to 281% and the EC50 amounted to 1.27 µM.
In the same order, the values of `Cc1ccc2cc(-n3c4c(c5ccccc53)CN3CCC4CC3)ccc2n1` [Example 232, 6-(2-methylquinolin-6-yl)-3,4,5,6-tetrahydro-1H-2,5-ethanoazepino[4,3-b]indole] are 220% and 0.81 µM.
For the compound `Fc1ccc2c(c1)c1c(n2Cc2ccccn2)C2CCN(CC2)C1` [Example 184, 9-fluoro-6-(pyridin-2-ylmethyl)-3,4,5,6-tetrahydro-1H-2,5-ethanoazepino[4,3-b]indole], the Emax worked out at 175% and the concentration giving a half-maximal response (EC50) is 10.7 µM.
The like results for `Fc1ccc2c(c1)c1c(n2Cc2cccnc2)C2CCN(CC2)C1` [Example 185, 9-fluoro-6-(pyridin-3-ylmethyl)-3,4,5,6-tetrahydro-1H-2,5-ethanoazepino[4,3-b]indole] were, in that order, 184% and 8.58 µM.
The like results for `Cc1ccc2c(c1)c1c(n2CCc2ccc(C)nn2)C[C@H]2CC[C@@H]1N2C` [Example 33, (7R,10S)-2,11-dimethyl-5-[2-(6-methylpyridazin-3-yl)ethyl]-5,6,7,8,9,10-hexahydro-7,10-epiminocyclohepta[b]indole] were, in that order, 97% and 5.81 µM.
The like results for `Fc1ccc2c(c1)c1c(n2Cc2cn3cccnc3n2)C2CCN(CC2)C1` [Example 254, 9-fluoro-6-(imidazo[1,2-a]pyrimidin-2-ylmethyl)-3,4,5,6-tetrahydro-1H-2,5-ethanoazepino[4,3-b]indole] were, in that order, 57.1% and 8.09 µM.
Regarding `Fc1ccc2c(c1)c1c(n2Cc2ccc(Cl)nc2)CC2CNC1C2` (stereo not drawn) [Example 285, 6-[(6-chloropyridin-3-yl)methyl]-9-fluoro-1,2,3,4,5,6-hexahydro-1,4-methanoazepino[4,3-b]indole], the Emax worked out at 149% and the concentration giving a half-maximal response (EC50) came to 9.41 µM.
`Cc1cc(Cn2c3c(c4cc(F)ccc42)CN2CCC3CC2)on1` [Example 252, 9-fluoro-6-[(3-methyl-1,2-oxazol-5-yl)methyl]-3,4,5,6-tetrahydro-1H-2,5-ethanoazepino[4,3-b]indole]: the Emax was 109% and the EC50 is 6.2 µM.
The like results for `Cc1ccc2c(c1)c1c(n2CCc2ccc(Cl)nc2)C2CC3CC1CN(C3)C2` (stereo not drawn) [Example 196, 8-[2-(6-chloropyridin-3-yl)ethyl]-11-methyl-1,4,5,6,7,8-hexahydro-2H-1,5:3,7-dimethanoazonino[5,4-b]indole] were, in that order, 182% and 3.91 µM.
`Cc1ccc2c(c1)c1c(n2CCc2ccc(C)nn2)C2CCN(CC2)C1` [Example 148, 9-methyl-6-[2-(6-methylpyridazin-3-yl)ethyl]-3,4,5,6-tetrahydro-1H-2,5-ethanoazepino[4,3-b]indole]: the Emax was determined as 99% and the 50% effective concentration (EC50) was found to be 3.52 µM.
With `CC1CCCN1c1ccc(Cn2c3c(c4cc(F)ccc42)CN2CCC3CC2)cn1` (stereo not drawn) [Example 240, 9-fluoro-6-{[6-(2-methylpyrrolidin-1-yl)pyridin-3-yl]methyl}-3,4,5,6-tetrahydro-1H-2,5-ethanoazepino[4,3-b]indole], the Emax is 170% and the EC50 came out at 3.33 µM.
On to `Oc1ncnc2ccc(-n3c4c(c5cc(F)ccc53)CN3CCC4CC3)cc12` [Example 259, 6-(9-fluoro-1,3,4,5-tetrahydro-6H-2,5-ethanoazepino[4,3-b]indol-6-yl)quinazolin-4-ol], for which the Emax came out at 126% and the EC50 came to 3.2 µM.
In the same order, the values of `Fc1ccc2c(c1)c1c(n2Cc2ccc(-n3cccn3)nc2)C2CCN(CC2)C1` [Example 247, 9-fluoro-6-{[6-(1H-pyrazol-1-yl)pyridin-3-yl]methyl}-3,4,5,6-tetrahydro-1H-2,5-ethanoazepino[4,3-b]indole] are 192% and 4.65 µM.
The like results for `CC(C)c1ccc2c(c1)c1c(n2CCc2ccc(Cl)cc2)C[C@H]2CC[C@@H]1N2C` (single isomer, unassigned) [Example 100] were, in that order, 140% and 3.63 µM.
In the same order, the values of `Fc1ccc2c(c1)c1c(n2Cc2ccncc2)C2CCN(CC2)C1` [Example 186, 9-fluoro-6-(pyridin-4-ylmethyl)-3,4,5,6-tetrahydro-1H-2,5-ethanoazepino[4,3-b]indole] are 93% and 14.6 µM.
Regarding `Cc1ccc2c(c1)c1c(n2CCc2ccc(C)nc2)C[C@@H]2CCC[C@H]1N2` (single isomer, unassigned) [Example 121], the Emax came to 129% and the concentration for a half-maximal effect (EC50) turned out to be 3.63 µM.
The like results for `CCOC(=O)Cn1c2c(c3cc(C)ccc31)CN1CCC2CC1` [Example 154, ethyl (9-methyl-1,3,4,5-tetrahydro-6H-2,5-ethanoazepino[4,3-b]indol-6-yl)acetate] were, in that order, 31% and 30 µM.
The like results for `Cc1ccc2c(c1)[C@@H]1CN3CCC(CC3)[C@@H]1N2CCc1ccc(C)nc1` (single isomer, unassigned) [Example 159] were, in that order, 240% and 2.67 µM.
With `Cc1ccc2c(c1)c1c(n2/C=C\c2ccc(C)nc2)C[C@@H]2CC[C@H]1N2C` [Example 24, (7S,10R)-2,11-dimethyl-5-[(Z)-2-(6-methylpyridin-3-yl)vinyl]-5,6,7,8,9,10-hexahydro-7,10-epiminocyclohepta[b]indole], the Emax is 221% and the concentration giving a half-maximal response (EC50) was 2.26 µM.
In the same order, the values of `CCOC(=O)N1[C@H]2CC[C@@H]1c1c(n(CCc3ccc(C)nc3)c3ccc(C)cc13)C2` [Example 16, ethyl (7S,10R)-2-methyl-5-[2-(6-methylpyridin-3-yl)ethyl]-5,6,7,8,9,10-hexahydro-7,10-epiminocyclohepta[b]indole-11-carboxylate] are 129% and 8.38 µM.
In the same order, the values of `Fc1ccc2c(c1)c1c(n2Cc2nc3ccccc3[nH]2)C2CCN(CC2)C1` [Example 250, 6-(1H-benzimidazol-2-ylmethyl)-9-fluoro-3,4,5,6-tetrahydro-1H-2,5-ethanoazepino[4,3-b]indole] are 77.3% and 8.37 µM.
In the same order, the values of `COc1ccc2c(c1)c1c(n2CCc2ccc(Cl)cc2)C[C@@H]2CC[C@H]1N2C` (single isomer, unassigned) [Example 93] are 186% and 4.81 µM.
Regarding `CC1CCC(CCn2c3c(c4cc(OC(F)(F)F)ccc42)CN2CCC3CC2)CN1` (stereo not drawn) [Example 179, 6-[2-(6-methylpiperidin-3-yl)ethyl]-9-(trifluoromethoxy)-3,4,5,6-tetrahydro-1H-2,5-ethanoazepino[4,3-b]indole], the Emax was determined as 116% and the EC50 amounted to 5.69 µM.
In the case of `CN(CC1OCCO1)c1ccc(Cn2c3c(c4cc(F)ccc42)CN2CCC3CC2)cn1` [Example 243, N-(1,3-dioxolan-2-ylmethyl)-5-[(9-fluoro-1,3,4,5-tetrahydro-6H-2,5-ethanoazepino[4,3-b]indol-6-yl)methyl]-N-methylpyridin-2-amine], the Emax amounted to 169% and the EC50 was found to be 8.36 µM.
For the compound `Fc1ccc2c(c1)c1c(n2-c2ccc3ncncc3c2)C2CCN(CC2)C1` [Example 227, 9-fluoro-6-quinazolin-6-yl-3,4,5,6-tetrahydro-1H-2,5-ethanoazepino[4,3-b]indole], the Emax is 266% and the EC50 is 3.62 µM.
